# Laboratory results as given in paper PMC10313671, “Accelerating the prediction and discovery of peptide hydrogels with human-in-the-loop” (Nature Communications, 2023).
# Where a SMILES comes first, the peptide text is derived from it.
# Tests used:
# [1] = Peptide hydrogel formation, vial-inverting method; assay type: physicochemical; parameters: key to EXP / GELATION: 0: no hydrogel; 1: hydrogel; details: for State: ultrasonication, standing 48 h; for Concentration: concentration at which the state was recorded: lowest of 30, 60, 90, 120 mM that gave a gel, 120 mM for non-gelating peptides; for GELATION: 1 = hydrogel, 0 = no hydrogel; for EXP: experimental gelation result of the synthesized peptide
# Procedure, shortened: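 Tetrapeptides dissolved in ultrapure water at 30 mM, pH brought to 6.5–8.5 with 1 N NaOH stepwise with brief ultrasonication, then left 48 h. Gel defined as self-supporting and non-flowing on vial inversion; non-gelling peptides retested at 60, 90 and 120 mM.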
# [2] = Transmission electron microscope (negative staining) of peptide assemblies; details: for Morphology: TEM, negative staining with uranyl acetate, 120 kV; for morphology by TEM (in words): aqueous solution or hydrogel, negative staining
# Description: We used the negative staining technique to observe the morphologies formed by peptides. A micropipette was used to load 10 μL of sample solution to a carbon-coated copper grid, and we used a piece of filter paper to remove the excess solution. After rinsing the grid with the deionized water, we used uranyl acetate to stain the sample for 1 minute and then rinsed the grid with deionized water again.
# [3] = 120 mM peptide (highest tested) in ultrapure water, pH 6.5-8.5 (1 N NaOH), vial-inverting method, precipitate, sol, suspension = no gel
# [4] = peptide concentration 120 mM, vial-inverting method
# [5] = 60 mM peptide in ultrapure water, pH 6.5-8.5 (1 N NaOH), vial-inverting method, no gel at 30 mM
# [6] = peptide concentration 60 mM, vial-inverting method
# [7] = 30 mM peptide in ultrapure water, pH adjusted to 6.5-8.5 with 1 N NaOH, vial-inverting method, concentration raised 30/60/90/120 mM until gelation
# [8] = peptide concentration 30 mM, vial-inverting method
SMILES,"State [1, 3]",Concentration [1],"GELATION [1, 4]",Morphology ([2]; line of the table gives 120 mM),also measured
NC(=O)C[C@H](NC(=O)[C@H](CC(N)=O)NC(=O)[C@H](CC(N)=O)NC(=O)[C@@H](N)CC(N)=O)C(=O)O [NNNN] (H-NNNN-OH),sol,120000 µM,0,aggregates,–
CC(C)C[C@H](NC(=O)CN)C(=O)N[C@@H](CC(C)C)C(=O)N[C@@H](Cc1ccc(O)cc1)C(=O)O [GLLY] (H-GLLY-OH),suspension,120000 µM,0,sheet,EXP [1]: 0
C[C@H](NC(=O)[C@@H](N)CO)C(=O)N[C@@H](Cc1c[nH]c2ccccc12)C(=O)N[C@@H](Cc1ccccc1)C(=O)O [SAWF] (H-SAWF-OH),–,60000 µM,–,–,"State [1, 5]: gel; GELATION [1, 6]: 1; Morphology ([2]; line of the table gives 60 mM): fibre"
CC[C@H](C)[C@H](NC(=O)[C@@H](NC(=O)[C@@H](N)CC(C)C)C(C)C)C(=O)N[C@@H](Cc1ccccc1)C(=O)O [LVIF] (H-LVIF-OH),–,60000 µM,–,–,"State [1, 5]: gel; GELATION [1, 6]: 1; Morphology ([2]; line of the table gives 60 mM): fibre"
CC[C@H](C)[C@H](NC(=O)[C@H](Cc1ccccc1)NC(=O)[C@H](Cc1c[nH]c2ccccc12)NC(=O)[C@@H](N)CC(C)C)C(=O)O [LWFI] (H-LWFI-OH),sol,120000 µM,0,aggregates,–
C[C@H](NC(=O)[C@@H](N)Cc1c[nH]c2ccccc12)C(=O)N[C@@H](Cc1ccccc1)C(=O)N[C@@H](Cc1ccc(O)cc1)C(=O)O [WAFY] (H-WAFY-OH),–,60000 µM,–,–,"State [1, 5]: gel; GELATION [1, 6]: 1; Morphology ([2]; line of the table gives 60 mM): fibre"
N[C@@H](Cc1c[nH]c2ccccc12)C(=O)N[C@@H](CCC(=O)O)C(=O)N[C@@H](Cc1ccccc1)C(=O)N[C@@H](Cc1ccccc1)C(=O)O [WEFF] (H-WEFF-OH),–,30000 µM,–,–,"State [1, 7]: gel; GELATION [1, 8]: 1; hydrogel formation (in words) ([1]; vial-inverting method, representative hydrogels pH between 7.0 to 7.5): hydrogels; Morphology ([2]; line of the table gives 30 mM): fibre; morphology by TEM (in words) [2]: entangled nanofibers"
CC[C@H](C)[C@H](NC(=O)[C@@H](NC(=O)[C@H](C)N)C(C)C)C(=O)N[C@@H](CCC(N)=O)C(=O)O [AVIQ] (H-AVIQ-OH),suspension,120000 µM,0,aggregates,–
CC(C)[C@H](N)C(=O)N[C@@H](Cc1ccccc1)C(=O)N[C@H](C(=O)N[C@@H](Cc1ccccc1)C(=O)O)C(C)C [VFVF] (H-VFVF-OH),–,30000 µM,–,–,"State [1, 7]: gel; GELATION [1, 8]: 1; Morphology ([2]; line of the table gives 30 mM): sheet"
N[C@@H](Cc1ccccc1)C(=O)NCC(=O)N[C@@H](Cc1c[nH]c2ccccc12)C(=O)N[C@@H](Cc1c[nH]c2ccccc12)C(=O)O [FGWW] (H-FGWW-OH),precipitate,120000 µM,0,sphere,morphology by TEM (in words) [2]: aggregates with different sizes
CC(C)C[C@H](NC(=O)[C@H](C)NC(=O)[C@@H](N)C(C)C)C(=O)N[C@H](C(=O)O)C(C)C [VALV] (H-VALV-OH),sol,120000 µM,0,aggregates,EXP [1]: 0
CC(C)C[C@H](NC(=O)[C@@H](N)CO)C(=O)N[C@H](C(=O)N[C@H](C(=O)O)C(C)C)C(C)C [SLVV] (H-SLVV-OH),–,60000 µM,–,–,"State [1, 5]: gel; GELATION [1, 6]: 1; Morphology ([2]; line of the table gives 60 mM): fibre"
CC(C)C[C@H](NC(=O)[C@H](CC(C)C)NC(=O)[C@@H](N)Cc1c[nH]cn1)C(=O)N[C@@H](Cc1ccccc1)C(=O)O [HLLF] (H-HLLF-OH),–,90000 µM,–,–,"State ([1]; 90 mM peptide in ultrapure water, pH 6.5-8.5 (1 N NaOH), vial-inverting method, no gel at lower concentrations): gel; GELATION ([1]; peptide concentration 90 mM, vial-inverting method): 1; Morphology ([2]; line of the table gives 90 mM): sheet"
N[C@@H](Cc1c[nH]cn1)C(=O)N[C@@H](Cc1c[nH]cn1)C(=O)N[C@@H](Cc1c[nH]cn1)C(=O)N[C@@H](Cc1c[nH]cn1)C(=O)O [HHHH] (H-HHHH-OH),sol,120000 µM,0,aggregates,–
CC(C)C[C@H](NC(=O)[C@@H](N)CC(C)C)C(=O)N[C@@H](Cc1c[nH]cn1)C(=O)N[C@@H](Cc1ccccc1)C(=O)O [LLHF] (H-LLHF-OH),–,30000 µM,–,–,"State [1, 7]: gel; GELATION [1, 8]: 1; Morphology ([2]; line of the table gives 30 mM): hybrid(sphere+fibre)"
CC(C)C[C@H](NC(=O)[C@H](CC(C)C)NC(=O)[C@@H](N)CCCCN)C(=O)N[C@@H](Cc1ccccc1)C(=O)O [KLLF],–,30000 µM,–,–,"State [1, 7]: gel; GELATION [1, 8]: 1; Morphology ([2]; line of the table gives 30 mM): particle"
CC(C)[C@H](NC(=O)[C@@H](N)CC(=O)O)C(=O)N[C@@H](Cc1ccccc1)C(=O)N[C@@H](Cc1c[nH]c2ccccc12)C(=O)O [DVFW] (H-DVFW-OH),–,30000 µM,–,–,"State [1, 7]: gel; GELATION [1, 8]: 1; Morphology ([2]; line of the table gives 30 mM): fibre"
CC[C@H](C)[C@H](NC(=O)[C@H](Cc1ccc(O)cc1)NC(=O)[C@@H]1CCCN1C(=O)[C@@H](N)Cc1ccc(O)cc1)C(=O)O [YPYI] (H-YPYI-OH),sol,120000 µM,0,aggregates,–
CC[C@H](C)[C@H](N)C(=O)N[C@H](C(=O)N[C@H](C(=O)N[C@@H](Cc1ccccc1)C(=O)O)[C@@H](C)CC)C(C)C [IVIF] (H-IVIF-OH),–,30000 µM,–,–,"State [1, 7]: gel; GELATION [1, 8]: 1; Morphology ([2]; line of the table gives 30 mM): sphere"
CSCC[C@H](NC(=O)[C@@H](N)CCSC)C(=O)N[C@@H](Cc1ccc(O)cc1)C(=O)N[C@@H](Cc1ccc(O)cc1)C(=O)O [MMYY] (H-MMYY-OH),suspension,120000 µM,0,particle,–
O=C(O)[C@@H]1CCCN1C(=O)[C@@H]1CCCN1C(=O)[C@@H]1CCCN1C(=O)[C@@H]1CCCN1 [PPPP] (H-PPPP-OH),suspension,120000 µM,0,particle,–
CC(C)C[C@H](NC(=O)[C@H](C)NC(=O)[C@@H](N)Cc1c[nH]c2ccccc12)C(=O)N[C@@H](Cc1c[nH]c2ccccc12)C(=O)O [WALW] (H-WALW-OH),–,30000 µM,1,–,"State [1, 7]: gel; Morphology ([2]; line of the table gives 30 mM): fibre"
CC(C)[C@H](NC(=O)[C@H](C)NC(=O)[C@@H](N)[C@@H](C)O)C(=O)N[C@@H](Cc1ccccc1)C(=O)O [TAVF] (H-TAVF-OH),gel,120000 µM,1,sheet,–
CC[C@H](C)[C@H](N)C(=O)N[C@@H](Cc1ccccc1)C(=O)N[C@H](C(=O)N[C@@H](Cc1ccc(O)cc1)C(=O)O)[C@@H](C)CC [IFIY] (H-IFIY-OH),–,60000 µM,–,–,"State [1, 5]: gel; GELATION [1, 6]: 1; Morphology ([2]; line of the table gives 60 mM): hybrid(particle+fibre)"
C[C@H](NC(=O)[C@H](Cc1ccc(O)cc1)NC(=O)[C@@H](N)Cc1ccccc1)C(=O)N[C@@H](Cc1ccc(O)cc1)C(=O)O [FYAY] (H-FYAY-OH),gel,120000 µM,1,sheet,–
